# Measured values taken from patent US10774064B2 (Cadent Therapeutics, Inc., priority 2016, dated 2020).
# Structures can show the parent of a compound that is named as a salt.
# Target: T1, small-conductance Ca2+-activated K+ channels (SK channels, subtype 2) (Homo sapiens, UniProt Q9H2S1)
# T1 construct: expressed in transfected cells; host or cells: HEK293
# Test: whole-cell patch-clamp of ionic current through SK2 channels in HEK293 cells (SC100)
# Assay type: cell-based
# Details: concentration that increases the basal current by 100%; HEK293 cells expressing SK2 channels
# Method in brief: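 SC100, the concentration doubling basal current (a 100% increase), was taken from SK2 currents recorded by whole-cell patch-clamp in SK2-expressing HEK293 cells.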
row,SC100,Compound
1,++ (++ means 200 nM-1000 nM),"Cc1cc(NC2CCC(F)(F)CC2)nc(-n2nc(C)cc2C)c1 [Compound 159, N-(4,4-difluorocyclohexyl)-6-(3,5-dimethyl-1H-pyrazol-1-yl)-4-methylpyridin-2-amine]"
2,++ (++ means 200 nM-1000 nM),"Cc1cc(C)n(-c2nc(NC3CCC(F)(F)CC3)cc(C3=CCCOC3)n2)n1 [Compound 262, N-(4,4-difluorocyclohexyl)-6-(5,6-dihydro-2H-pyran-3-yl)-2-(3,5-dimethyl-1H-pyrazol-1-yl)pyrimidin-4-amine]"
3,++ (++ means 200 nM-1000 nM),Cc1cc(NC2CCC(F)(F)CC2)nc(-n2ccc(C(F)F)n2)n1 [Compound 216]
4,++ (++ means 200 nM-1000 nM),"COC(=O)N1CC(Oc2cc(NC3CCC(F)(F)CC3)nc(-n3ccc(C(F)F)n3)n2)C1 [Compound 295, methyl 3-((6-((4,4-difluorocyclohexyl)amino)-2-(3-(difluoromethyl)-1H-pyrazol-1-yl)pyrimidin-4-yl)oxy)azetidine-1-carboxylate]"
5,++ (++ means 200 nM-1000 nM),"Cc1ccn(-c2nc(NC3CCC(F)(F)CC3)cc(NC3CC(C)(C)C3)n2)n1 [Compound 156, N4-(4,4-difluorocyclohexyl)-N6-(3,3-dimethylcyclobutyl)-2-(3-methyl-1H-pyrazol-1-yl)pyrimidine-4,6-diamine]"
6,+ (+ means >1 uM),"Cc1cc(C)n(-c2nc(NC3CCC(F)(F)CC3)cc(N3C[C@H]4CC3CN4)n2)n1 [Compound 103, 6-((4R)-2,5-diazabicyclo [2.2.1]heptan-2-yl)-N-(4,4-difluorocyclohexyl)-2-(3,5-dimethyl-1H-pyrazol-1-yl)pyrimidin-4-amine hydrochloride salt]"
7,+ (+ means >1 uM),"CC(O)c1ccn(-c2nc(NC3CCC(F)(F)CC3)cc(OC3CN(C(=O)C(C)(C)C)C3)n2)n1 (stereo not shown) [Compound 315, 1-(3-((6-((4,4-difluorocyclohexyl)amino)-2-(3-(1-hydroxyethyl)-1H-pyrazol-1-yl)pyrimidin-4-yl)oxy)azetidin-1-yl)-2,2-dimethylpropan-1-one]"
8,+++ (+++ means <200 nM),"Cn1cnc2c(NC3CCC(F)(F)CC3)nc(-n3ccc(CF)n3)cc21 [Compound 286, N-(4,4-difluorocyclohexyl)-6-(3-(fluoromethyl)-1H-pyrazol-1-yl)-1-methyl-1H-imidazo[4,5-c]pyridin-4-amine]"
9,+ (+ means >1 uM),"Cc1cc(C)n(-c2nc(NC3CCC(F)(F)CC3)cc(NC3CCCN(C)C3=O)n2)n1 (stereo not shown) [Compound 133, 3-((6-((4,4-difluorocyclohexyl)amino)-2-(3,5-dimethyl-1H-pyrazol-1-yl)pyrimidin-4-yl)amino)-1-methylpiperidin-2-one]"
10,+ (+ means >1 uM),"Cc1cc(C)n(-c2cc(NCC(C)(C)C)cc(NC3CCC(F)(F)CC3)n2)n1 [Compound 234, N2-(4,4-difluorocyclohexyl)-6-(3,5-dimethyl-1H-pyrazol-1-yl)-N4-neopentylpyridine-2,4-diamine]"

# Same assay, conditions: whole-cell patch-clamp, HEK293 cells expressing SK2 channels; concentration that increases the basal current by 100%
row,SC100 (μM),Compound
1,++ (++ means 200 nM-1000 nM),"Cc1csc(-c2cc(N3CC4(COC4)C3)nc(NC3CCC(F)(F)CC3)n2)n1 [NSSy6558, N-(4,4-difluorocyclohexyl)-4-(4-methylthiazol-2-yl)-6-(2-oxa-6-azaspiro [3.3]heptan-6-yl)pyrimidin-2-amine]"
2,++ (++ means 200 nM-1000 nM),"CC(=O)N1CCN(c2cc(-n3ccc(C(F)F)n3)nc(NC3CCC(F)(F)CC3)n2)CC1 [NSSy6930, 1-(4-(2-((4,4-difluorocyclohexyl)amino)-6-(3-(difluoromethyl)-1H-pyrazol-1-yl)pyrimidin-4-yl)piperazin-1-yl)ethan-1-one]"
3,+ (+ means >1 uM),"CC(=O)c1cc(NC2CCC(F)(F)CC2)nc(-c2nc(C3CC3)cs2)n1 [IN11147-071-P1, 1-(2-(4-cyclopropylthiazol-2-yl)-6-((4,4-difluorocyclohexyl)amino)pyrimidin-4-yl) ethan-1-one]"
4,+ (+ means >1 uM),"Cc1csc(N2C[C@@H](Nc3ccc([N+](=O)[O-])cc3)C[C@H](N3CCOCC3)C2)n1 [NSSy6342, (3S,5S)-1-(4-methylthiazol-2-yl)-5-morpholino-N-(4-nitrophenyl)piperidin-3-amine]"
5,+ (+ means >1 uM),"CC(C)(C)c1ccn(-c2nc(NC3CCC(F)(F)CC3)cc(N3CCOCC3)n2)n1 [IN11177-025-P1, 2-(3-(tert-butyl)-1H-pyrazol-1-yl)-N-(4,4-difluorocyclohexyl)-6-morpholinopyrimidin-4-amine]"
6,+ (+ means >1 uM),"Cc1noc(-c2nc(NC3CCC(F)(F)CC3)cc(N3CCOCC3)n2)n1 [NSSy5835, N-(4,4-difluorocyclohexyl)-2-(3-methyl-1,2,4-oxadiazol-5-yl)-6-morpholinopyrimidin-4-amine]"
7,+ (+ means >1 uM),"Cc1csc(-c2ncc(O)c(NC3CCC(F)(F)CC3)n2)n1 [IN11125-095-P1, 4-((4,4-difluorocyclohexyl)amino)-2-(4-methylthiazol-2-yl)pyrimidin-5-ol]"
8,+ (+ means >1 uM),"Cc1ccc(-c2nc(NC3CCC(F)(F)CC3)cc(N3CCOCC3)n2)n1C [IN10971-059-P1, N-(4,4-difluorocyclohexyl)-2-(1,5-dimethyl-1H-pyrrol-2-yl)-6-morpholino pyrimidin-4-amine]"
9,+ (+ means >1 uM),Cc1ccn(-c2nc(NC3CCC(F)(F)CC3)cc(OCc3cocn3)n2)n1 [IN11053-024-P1]
10,++ (++ means 200 nM-1000 nM),Cc1ccn(-c2nc(NC3CC=CCC3)cc(OC3CN(C(=O)C(C)C)C3)n2)n1 (stereo not shown) [NSSy5762]
11,+++ (+++ means <200 nM),CC(=O)N1CCN(c2cc(NC3CCC(F)(F)CC3)nc(-c3nc(C)cs3)n2)CC1 [NSSy6055]
12,+ (+ means >1 uM),COc1ccn(-c2cc(N3CCN(C(C)=O)CC3)nc(NC3CCC(F)(F)CC3)n2)n1 [NSSy6936]
13,++ (++ means 200 nM-1000 nM),Cc1ccn(-c2cc(C(O)c3nnc(C)o3)cc(NC3CCC(F)(F)CC3)n2)n1 (stereo not shown) [NSSy6576]
14,+ (+ means >1 uM),Cc1ccn(-c2nc(C#N)cc(NC3CCC(F)(F)CC3)n2)n1 [IN11288-025-P1]
15,+ (+ means >1 uM),Cc1nc(-c2nc(NC3CCC(F)(F)CC3)cc(N3CCS(=O)(=O)CC3)n2)cs1 [NSSy6165]
16,+ (+ means >1 uM),"Cc1csc(-c2nc(NC3CCCCC3(F)F)cc(C(C)F)n2)n1 (stereo not shown) [IN11140-089-P1, N-(2,2-difluorocyclohexyl)-6-(1-fluoroethyl)-2-(4-methylthiazol-2-yl)pyrimidin-4-amine]"

row,SC100 (μM),Compound
1,++ (++ means 200 nM-1000 nM),Cc1csc(-c2nc(NC3CCC(F)(F)CC3)cc(N3CC4CC3CN4C)n2)n1 (stereo not shown) [IN10987-056-P1]
2,+++ (+++ means <200 nM),COC(=O)NCc1cc(NC2CCC(F)(F)CC2)nc(-c2nc(C)cs2)c1 [IN11130-047-P1]
3,+ (+ means >1 uM),"Cc1cc(NC2CCC(F)(F)CC2)nc(-n2ccc(C(=O)OC(C)C)n2)n1 [IN11251-020-P1, isopropyl 1-(4-((4,4-difluorocyclohexyl)amino)-6-methylpyrimidin-2-yl)-1H-pyrazole-3-carboxylate]"
4,+ (+ means >1 uM),"Cc1cc(NC2CCC(F)(F)CC2)nc(-n2ccc(C3=CCCC3)n2)n1 [IN11250-007-P1, 2-(3-(cyclopent-1-en-1-yl)-1H-pyrazol-1-yl)-N-(4,4-difluorocyclohexyl)-6-methylpyrimidin-4-amine]"
5,++ (++ means 200 nM-1000 nM),Cc1nsc(-c2nc(NC3CCC(F)(F)CC3)cc(N3CCN4C(=O)OC[C@H]4C3)n2)n1 [NSSy6252]
6,++ (++ means 200 nM-1000 nM),Cc1ccn(-c2cc([C@H](O)c3ncco3)cc(NC3CCC(F)(F)CC3)n2)n1 [NSSy6416]
7,+ (+ means >1 uM),"Cc1ccn(-c2nc(NC3CCC(F)(F)CC3)cc(C(C)S(C)(=O)=O)n2)n1 (stereo not shown) [IN10973-060-P1, N-(4,4-difluorocyclohexyl)-2-(3-methyl-1H-pyrazol-1-yl)-6-(1-(methylsulfonyl)ethyl)pyrimidin-4-amine]"
8,+ (+ means >1 uM),Cc1ccn(-c2nc(C(C)O)cc(N3CCCCC3)n2)n1 (stereo not shown) [IN10882-055-P1]
9,++ (++ means 200 nM-1000 nM),"COc1nc(-c2nc(C)cs2)nc(NC2CCC(F)(F)CC2)c1F [IN11039-058-P1, N-(4,4-difluorocyclohexyl)-5-fluoro-6-methoxy-2-(4-methylthiazol-2-yl)pyrimidin-4-amine]"
10,+ (+ means >1 uM),"COC(=O)NCc1cc(NC2CCC(F)(F)CC2)nc(-n2ccc(C)n2)n1 [IN11053-033-P1, methyl ((6-((4,4-difluorocyclohexyl)amino)-2-(3-methyl-1H-pyrazol-1-yl)pyrimidin-4-yl)methyl) carbamate]"
11,+ (+ means >1 uM),"Cc1cnc(-c2nc(NC3CCC(F)(F)CC3)cc(N3CCOCC3)n2)s1 [NSSy6067, N-(4,4-difluorocyclohexyl)-2-(5-methylthiazol-2-yl)-6-morpholinopyrimidin-4-amine]"
12,++ (++ means 200 nM-1000 nM),Cc1csc(-c2cc(C(O)c3ncco3)cc(NC3CCC(F)(F)CC3)n2)n1 (stereo not shown) [NSSy6563]
13,+++ (+++ means <200 nM),Cc1ccn(-c2cc(COc3ccc(C#N)nn3)cc(NC3CCC(F)(F)CC3)n2)n1 [NSSy6417]
14,++ (++ means 200 nM-1000 nM),Cc1csc(-c2nc(NC3CCC(F)(F)CC3)cc(N3CCN(C)CC3)n2)n1 [IN10880-014-P1]
15,+ (+ means >1 uM),Fc1ccn(-c2cc(N3CC4(COC4)C3)nc(NC3CCC(F)(F)CC3)n2)n1 [NSSy6467]

row,Compound,SC100 (μM)
1,"Cc1ccn(-c2nc(NC3CCC(F)(F)CC3)cc(OC3CC(F)(F)C3)n2)n1 [NSSy5893, 6-(3,3-difluorocyclobutoxy)-N-(4,4-difluorocyclohexyl)-2-(3-methyl-1H-pyrazol-1-yl)pyrimidin-4-amine]",++ (++ means 200 nM-1000 nM)
2,Cc1nc(-c2nc(NC3CCCCC3)cc(N3CCS(=O)(=O)CC3)n2)cs1 [NSSy6134],+ (+ means >1 uM)
